# Laboratory results taken from patent US20250034110A1, “LPAR1 ANTAGONISTS AND USES THEREOF” (Pipeline Therapeutics, Inc., priority 2021, published 2025).
# Molecular target: human LPAR1 (Homo sapiens, UniProt Q92633)
# Assay: In vitro functional assay of lysophosphatidic acid receptor 1 activity (calcium flux)
# Assay type: cell-based
# Details: B103 cells stably expressing human LPAR1; calcium flux (Fluo-4 NW) after lysophosphatidic acid (18:1) at EC80; 100 pM to 10 μM; read-out: LPAR1 IC50
# Chain of human LPAR1 (Q92633 whole entry): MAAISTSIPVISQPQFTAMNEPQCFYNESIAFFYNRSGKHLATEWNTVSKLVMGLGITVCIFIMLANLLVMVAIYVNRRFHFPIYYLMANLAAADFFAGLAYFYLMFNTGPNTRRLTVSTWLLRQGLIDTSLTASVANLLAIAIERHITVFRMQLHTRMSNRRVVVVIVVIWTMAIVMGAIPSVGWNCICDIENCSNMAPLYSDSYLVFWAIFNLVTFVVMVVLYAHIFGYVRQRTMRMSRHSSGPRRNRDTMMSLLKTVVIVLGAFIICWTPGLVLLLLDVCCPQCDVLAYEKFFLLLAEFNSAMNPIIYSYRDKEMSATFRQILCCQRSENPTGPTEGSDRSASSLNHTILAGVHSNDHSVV
row,Structure (SMILES),IC50 [nM]
1,Cc1ccc(NC(=O)N(c2ccccc2C(C)C)[C@@H]2CC[C@H](C(=O)O)C2)c(OC(F)F)n1 [Example 302],10 to 100
2,Cc1cc(OC(F)F)c(NC(=O)N(c2ccccc2C(C)C)[C@H]2C[C@@H](CC(=O)O)C2)cn1 [Example 305],10 to 100
3,CC(C)c1ccccc1N(C(=O)Nc1ccc(Cl)cn1)[C@H]1C[C@@H](CC(=O)O)C1 [Example 306],100 to 1000
4,COc1cc(C(F)F)ncc1NC(=O)N(c1ccccc1C(C)C)[C@H]1C[C@@H](CC(=O)O)C1 [Example 307],100 to 1000
5,Cc1ccc(NC(=O)N(c2ccccc2C(C)C)[C@H]2CC[C@@](C)(C(=O)O)CC2)c(OC(F)F)n1 [Example 308],100 to 1000
6,"COc1ccc(NC(=O)N(c2ccccc2C(C)C)[C@H]2CC[C@H](C(=O)O)CC2)c(OCCF)n1 [Example 315, (1r,4r)-4-(3-(2-(2-fluoroethoxy)-6-methoxypyridin-3-yl)-1-(2-isopropylphenyl)ureido)cyclohexane-1-carboxylic acid]",10 to 100
7,"COC[C@H](C)Oc1nc(C)ccc1NC(=O)N(c1ccccc1C(C)C)[C@H]1CC[C@H](C(=O)O)CC1 [Example 316, trans-4-(1-(2-isopropylphenyl)-3-(2-(((S)-1-methoxypropan-2-yl)oxy)-6-methylpyridin-3-yl)ureido)cyclohexane-1-carboxylic acid]",10 to 100
8,"COC[C@H](C)Oc1cc(C)ncc1NC(=O)N(c1ccccc1C(C)C)[C@H]1CC[C@H](C(=O)O)CC1 [Example 317, trans-4-(1-(2-isopropylphenyl)-3-(4-(((S)-1-methoxypropan-2-yl)oxy)-6-methylpyridin-3-yl)ureido)cyclohexane-1-carboxylic acid]",100 to 1000
9,"COCc1ccc(NC(=O)N(c2ccccc2C(C)C)[C@H]2CC[C@H](C(=O)O)CC2)c(OCC(F)F)n1 [Example 318, (1r,4r)-4-(3-(2-(2,2-difluoroethoxy)-6-(methoxymethyl)pyridin-3-yl)-1-(2-isopropylphenyl)ureido)cyclohexane-1-carboxylic acid]",100 to 1000
10,CC(C)c1ccccc1N(C(=O)Nc1ccc(O)nc1OC(F)F)[C@H]1CC[C@H](C(=O)O)CC1 [Example 320],10 to 100
11,"COc1cc(C)c(Cl)cc1NC(=O)N(c1ccccc1C(C)C)[C@H]1CC[C@H](C(=O)O)CC1 [Example 328, (1r,4r)-4-(3-(5-chloro-2-methoxy-4-methylphenyl)-1-(2-isopropylphenyl)ureido)cyclohexane-1-carboxylic acid]",10 to 100
12,COc1ccc(NC(=O)N(c2ccccc2C(C)C)[C@H]2C[C@@H](CC(=O)O)C2)c(OCC(F)F)n1 [Example 332],10 to 100
13,"CC(C)c1ccccc1N(C(=O)Nc1cc(F)c(Cl)cc1OCC(F)F)[C@H]1CC[C@H](C(=O)O)CC1 [Example 334, (1r,4r)-4-(3-(4-chloro-2-(2,2-difluoroethoxy)-5-fluorophenyl)-1-(2-isopropylphenyl)ureido)cyclohexane-1-carboxylic acid]",< 10
14,"Cc1ccc(NC(=O)N(c2ccccc2C(C)C)[C@H]2CC[C@H](C(=O)O)CC2)c(OCC(F)F)n1 [Example 335, (1r,4r)-4-(3-(2-(2,2-difluoroethoxy)-6-methylpyridin-3-yl)-1-(2-isopropylphenyl)ureido)cyclohexane-1-carboxylic acid]",10 to 100
15,"CC(C)c1ccccc1N(C(=O)Nc1ncc(Cl)cc1OC(F)F)[C@H]1CC[C@H](C(=O)O)CC1 [Example 336, (1r,4r)-4-(3-(5-chloro-3-(difluoromethoxy)pyridin-2-yl)-1-(2-isopropylphenyl)ureido)cyclohexane-1-carboxylic acid]",10 to 100
16,"Cc1ccc(NC(=O)N(c2ccccc2C(C)C)[C@H]2CC[C@H](C(=O)O)CC2)c(OCCF)n1 [Example 338, (1r,4r)-4-(3-(2-(2-fluoroethoxy)-6-methylpyridin-3-yl)-1-(2-isopropylphenyl)ureido)cyclohexane-1-carboxylic acid]",10 to 100
17,"COC[C@H](C)Oc1nc(OC)ccc1NC(=O)N(c1ccccc1C(C)C)[C@H]1CC[C@H](C(=O)O)CC1 [Example 339, trans-4-(1-(2-isopropylphenyl)-3-(6-methoxy-2-(((S)-1-methoxypropan-2-yl)oxy)pyridin-3-yl)ureido)cyclohexane-1-carboxylic acid]",10 to 100
18,COc1ccc(NC(=O)N(c2ccccc2C(C)C)[C@H]2CC[C@](C)(C(=O)O)CC2)c(OC(F)F)n1 [Example 340],10 to 100

# Continued, values first:
row,IC50 [nM],Structure (SMILES)
1,< 10,Cc1ccc(NC(=O)N(c2ccccc2C(C)C)[C@@H]2CC[C@@H](C(=O)O)C2)c(OC(F)F)n1 [Example 303]
2,< 10,Cc1ccc(NC(=O)N(c2ccccc2C(C)C)[C@H]2CC[C@H](C(=O)O)C2)c(OC(F)F)n1 [Example 304]
3,< 10,Cc1ccc(NC(=O)N(c2ccccc2C(C)C)[C@H]2CC[C@](C)(C(=O)O)CC2)c(OC(F)F)n1 [Example 309]
4,< 10,"COc1ccc(NC(=O)N(c2ccccc2C(C)C)[C@H]2CC[C@@](O)(C(F)(F)C(=O)O)CC2)c(OC(F)F)n1 [Example 321, 2-((1r,4r)-4-(3-(2-(difluoromethoxy)-6-methoxypyridin-3-yl)-1-(2-isopropylphenyl)ureido)-1-hydroxycyclohexyl)-2,2-difluoroacetic acid]"
5,< 10,"COc1ccc(NC(=O)N(c2ccccc2C(C)C)[C@H]2CC[C@](O)(C(F)(F)C(=O)O)CC2)c(OC(F)F)n1 [Example 322, 2-((1s,4s)-4-(3-(2-(difluoromethoxy)-6-methoxypyridin-3-yl)-1-(2-isopropylphenyl)ureido)-1-hydroxycyclohexyl)-2,2-difluoroacetic acid]"
6,< 10,COc1ccc(NC(=O)N(c2ccccc2C(C)C)[C@H]2C[C@@](O)(C(F)(F)C(=O)O)C2)c(OC(F)F)n1 [Example 323]
7,< 10,COc1ccc(NC(=O)N(c2ccccc2C(C)C)[C@H]2C[C@](O)(C(F)(F)C(=O)O)C2)c(OC(F)F)n1 [Example 324]
8,< 10,Cc1ccc(NC(=O)N(c2ccccc2C(C)C)[C@H]2CC[C@](O)(C(F)(F)C(=O)O)CC2)c(OC(F)F)n1 [Example 326]
9,< 10,"COc1cc(C)ccc1NC(=O)N(c1ccccc1C(C)C)[C@H]1CC[C@H](C(=O)O)CC1 [Example 327, (1r,4r)-4-(1-(2-isopropylphenyl)-3-(2-methoxy-4-methylphenyl)ureido)cyclohexane-1-carboxylic acid]"
10,< 10,CC(C)c1ccccc1N(C(=O)Nc1cc(F)c(F)cc1OC(F)F)[C@H]1C[C@@H](CC(=O)O)C1 [Example 329]
11,< 10,COc1cc(Cl)c(F)cc1NC(=O)N(c1ccccc1C(C)C)[C@H]1C[C@@H](CC(=O)O)C1 [Example 330]
12,< 10,CC(C)c1ccccc1N(C(=O)Nc1cc(F)c(Cl)cc1OCC(F)F)[C@H]1C[C@@H](CC(=O)O)C1 [Example 331]
13,< 10,"COc1cc(Cl)c(F)cc1NC(=O)N(c1ccccc1C(C)C)[C@H]1CC[C@H](C(=O)O)CC1 [Example 333, (1r,4r)-4-(3-(4-chloro-5-fluoro-2-methoxyphenyl)-1-(2-isopropylphenyl)ureido)cyclohexane-1-carboxylic acid]"
